Data from US20240115557A1, “INHIBITORS OF RNA-GUIDED NUCLEASES AND USES THEREOF” (The Brigham and Women's Hospital, Inc., priority 2022, published 2024).

Target: T1, SaCas9 (Staphylococcus aureus, UniProt J7RUA5)
T1 sequence (J7RUA5 1-1053): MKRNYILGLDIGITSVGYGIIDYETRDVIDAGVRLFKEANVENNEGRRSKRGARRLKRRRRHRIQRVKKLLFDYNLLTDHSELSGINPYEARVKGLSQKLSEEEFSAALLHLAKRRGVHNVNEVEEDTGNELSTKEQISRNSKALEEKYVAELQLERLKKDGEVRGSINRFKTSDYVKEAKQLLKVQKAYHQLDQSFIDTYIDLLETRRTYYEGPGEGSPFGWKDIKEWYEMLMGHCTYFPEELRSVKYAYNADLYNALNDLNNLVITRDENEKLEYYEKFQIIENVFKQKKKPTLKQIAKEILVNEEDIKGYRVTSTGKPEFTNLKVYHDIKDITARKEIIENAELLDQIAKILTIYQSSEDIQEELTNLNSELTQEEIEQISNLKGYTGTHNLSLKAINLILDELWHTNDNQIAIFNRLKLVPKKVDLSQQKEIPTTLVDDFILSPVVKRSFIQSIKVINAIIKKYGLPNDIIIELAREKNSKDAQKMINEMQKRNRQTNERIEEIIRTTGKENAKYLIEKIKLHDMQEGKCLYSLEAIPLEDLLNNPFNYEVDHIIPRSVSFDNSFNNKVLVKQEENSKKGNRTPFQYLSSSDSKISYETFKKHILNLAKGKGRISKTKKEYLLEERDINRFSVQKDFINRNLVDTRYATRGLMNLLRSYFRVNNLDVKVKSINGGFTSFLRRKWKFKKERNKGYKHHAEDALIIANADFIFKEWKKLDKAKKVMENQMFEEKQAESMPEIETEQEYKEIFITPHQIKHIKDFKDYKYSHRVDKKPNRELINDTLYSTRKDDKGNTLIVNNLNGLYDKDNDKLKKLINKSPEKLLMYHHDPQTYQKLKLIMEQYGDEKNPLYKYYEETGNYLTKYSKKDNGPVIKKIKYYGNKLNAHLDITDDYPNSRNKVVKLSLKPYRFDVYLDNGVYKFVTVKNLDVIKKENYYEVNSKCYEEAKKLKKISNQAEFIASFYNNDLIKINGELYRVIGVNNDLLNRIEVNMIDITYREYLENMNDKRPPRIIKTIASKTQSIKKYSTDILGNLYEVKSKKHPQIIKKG
Test: Strand displacement assay, SaCas9 primary screen
Format: biochemical
Conditions: for Auto Zscore Rep 1 / Auto Zscore Rep 2 / Normalized Zscore Rep 1 / Normalized Zscore Rep 2: SaCas9 primary screen; for Auto Zscore Rep 1 / Normalized Zscore Rep 1: replicate 1; for Auto Zscore Rep 2 / Normalized Zscore Rep 2: replicate 2; for Normalized Zscore Rep 1 / Normalized Zscore Rep 2: weaker potential hits; for 3 sigma Hit: flag 1 = hit at 3 sigma; for 5 sigma Hit: flag 1 = hit at 5 sigma
Procedure, shortened: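 Cas9 RNP (1:1.2 protein:gRNA) pre-formed in 20 mM Tris-HCl pH 7.5, 100 mM KCl, 5 mM MgCl2, used at 10 nM (2× stock) with Alexa-Fluor 647 substrate/quencher at 1 nM/5 nM (2× stock). Reaction ran 2.5 h at 37°C; strand displacement read as fluorescence. Hits called by Z-score: 3–5σ weak, >5σ strong.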

Structure (SMILES)	Auto Zscore Rep 1	Auto Zscore Rep 2	Normalized Zscore Rep 1	Normalized Zscore Rep 2	3 sigma Hit	5 sigma Hit
c1ccc(Cc2nn3c(-c4cccnc4)nnc3s2)cc1 [Compound D727-0066]	0.2456	1.309	0.1917	0.2236	1	1
Cc1nc2ccccc2n1Cc1nnc2n1N=C(N)CS2 [Compound D727-0339]	−1.123	−1.939	0.1478	0.2051	1	–
Cc1ccccc1OCc1nn2c(C(C)C)nnc2s1 [Compound D727-0350]	−0.2032	0.9814	0.2025	0.2065	1	1
Cc1ccccc1OCc1nn2c(C(C)(C)C)nnc2s1 [Compound D727-0351]	−0.02144	−0.3042	0.2896	0.3227	1	1
Brc1ccc(OCc2nn3c(-c4ccccn4)nnc3s2)cc1 [Compound D727-0522]	1.021	0.5297	0.3471	0.3776	1	1
Fc1ccc(OCc2nn3c(-c4ccccn4)nnc3s2)cc1 [Compound D727-0525]	0.9393	1.066	0.3566	0.3426	1	1
NC(=O)c1c(NC(=O)COCc2cc(-c3ccc4c(c3)OCO4)on2)sc2c1CCCC2 [Compound E613-0091]	−0.4678	−1.998	0.1515	0.3604	1	–
NS(=O)(=O)c1ccc(CCNC(=O)C2=Cc3sc4c(c3CS2)CCCC4)cc1 [Compound E722-2588]	0.2247	−0.3407	0.2746	0.2871	1	1
NC(=O)c1sc(=S)n2c1[nH]c(=O)c1ccc(Cl)cc12 [Compound F083-0067]	−0.5214	0.84	0.2245	0.2068	1	1
CCCN1CCN(c2ccc(C(=O)O)cc2NC(=O)c2ccccc2Cl)CC1 [Compound F086-0004]	−1.483	1.076	0.2725	0.2108	1	1
CC(C)NC(=O)CN1CCN(c2ccc(C(=O)O)cc2NC(=O)c2ccccc2Cl)CC1 [Compound F086-0028]	−0.07719	0.5847	0.2467	0.2295	1	1
COCCCNC(=O)CN1CCN(c2ccc(C(=O)O)cc2NC(=O)c2ccccc2Cl)CC1 [Compound F086-0033]	−0.0657	−0.1907	0.1937	0.2246	1	1
O=C(O)c1ccc(N2CCN(c3ccccn3)CC2)c(NC(=O)c2ccc(Br)cc2)c1 [Compound F086-0619]	1.213	0.1224	0.2335	0.1451	1	1
Nc1c(C(=O)N2CCCC2)sc(=S)n1Cc1ccccc1 [Compound F128-0041]	1.188	−1.115	0.3576	0.3845	1	1
Nc1c(C(=O)N2CCCCC2)sc(=S)n1Cc1ccccc1 [Compound F128-0042]	−0.3436	0.3038	0.2801	0.2612	1	1
Nc1c(C(=O)NCC2CCCO2)sc(=S)n1-c1ccc(Cl)cc1 (centres unmarked) [Compound F128-0076]	−0.6285	−1.451	0.3168	0.2064	1	1
CS(=O)(=O)Nc1cnc(N2CCC(C(N)=O)(N3CCCCC3)CC2)c(C(=O)O)c1 [Compound F293-0183]	1.533	−0.4148	0.2879	0.3283	1	1
O=C(O)c1cc(NS(=O)(=O)c2cc(F)ccc2F)cnc1N1CCC(N2CCCCC2)CC1 [Compound F293-0616]	−0.1879	−0.1846	0.1887	0.1788	1	–
CS(=O)(=O)Nc1cnc(N2CCC(CCN3CCOCC3)CC2)c(C(=O)O)c1 [Compound F293-0898]	0.3628	0.2374	0.3858	0.277	1	1
CN(C)S(=O)(=O)Nc1cnc(N2CCC(CCN3CCCCC3)CC2)c(C(=O)O)c1 [Compound F293-0962]	−1.575	−1.36	0.2533	0.277	1	1
CCN(Cc1ccccc1)c1ccc(NS(=O)(=O)c2ccc(OC)cc2)cc1C(=O)O [Compound F294-0003]	0.9297	−1.427	0.2547	0.2729	1	1
CN(C)S(=O)(=O)Nc1ccc(N2CCC(C(N)=O)(N3CCCCC3)CC2)c(C(=O)O)c1 [Compound F294-0183]	−1.66	−0.5827	0.1624	0.2442	1	–
CN(C)S(=O)(=O)Nc1ccc(N2CCC(CCN3CCOCC3)CC2)c(C(=O)O)c1 [Compound F294-0900]	−2.121	0.2518	0.2307	0.229	1	1
CN(C)S(=O)(=O)Nc1ccc(N2CCCC(CN3CCCC3)C2)c(C(=O)O)c1 (centres unmarked) [Compound F294-0983]	−0.3877	−0.5875	0.2894	0.2577	1	1
